Experimental data from US20150290235A1, “USE OF SMALL MOLECULE INHIBITORS/ACTIVATORS IN COMBINATION WITH (DEOXY)NUCLEOSIDE OR (DEOXY)NUCLEOTIDE ANALOGS FOR TREATMENT OF CANCER AND HEMATOLOGICAL MALIGNANCIES OR VIRAL INFECTIONS” (AB SCIENCE, priority 2012, published 2015).
“And” between values parts separate entries of the source, which are not always exact repeats. Equal entries are not always repeated. “Also recorded” adds a separate entry of the source.

Legend:
[1] = target: human deoxycytidine kinase (dCK) (Homo sapiens, UniProt P27707); assay: dCK activity with UTP as phosphate donor (PK/LDH enzymatic-coupled assay); conditions: nine dCK substrates
Sequence of human deoxycytidine kinase (dCK) (P27707 whole entry): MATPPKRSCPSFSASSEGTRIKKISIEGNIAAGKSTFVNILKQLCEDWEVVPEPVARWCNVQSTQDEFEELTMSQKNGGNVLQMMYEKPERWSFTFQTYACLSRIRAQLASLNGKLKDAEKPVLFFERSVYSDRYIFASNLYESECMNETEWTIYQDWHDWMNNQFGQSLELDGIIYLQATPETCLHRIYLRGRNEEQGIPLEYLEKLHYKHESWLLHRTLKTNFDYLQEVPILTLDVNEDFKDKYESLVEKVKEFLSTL

D17 osteosarcoma cells = assay: Alamar Blue cell proliferation assay, D17; format: cell-based, canine
[2] = test system: Abrams osteosarcoma cells; assay: Alamar Blue cell proliferation assay, Abrams; format: cell-based, canine
C2 mastocytoma cells = assay: Alamar Blue cell proliferation assay, C2; format: cell-based, canine
[3] = test system: Panc-1 pancreatic cancer cells; assay: WST-1 proliferation assay, Panc-1; format: cell-based, human; conditions: Panc-1
Procedure: (§1) Cancer cell lines: Pancreatic cancer cells lines (Mia Paca-2, Panc-1, BxPC-3 and Capan-2) were obtained from Dr. Juan Iovanna (Inserm, France). Cells were maintained in RPMI (BxPC-3, Capan-2) or DMEM (Mia Paca-2, Panc-1) medium containing glutamax-1 (Lonza), supplemented with 100 U/ml penicillin/100 μg/ml streptomycin, and 10% fetal calf serum (FCS) (AbCys, Lot S02823S1800). Expression of tyrosine kinases was determined by RT-PCR using Hot Star Taq (Qiagen GmbH, Hilden, Germany) in a 2720 Thermal Cycler (Applied Biosystems).
(§2) Treatment was started with the addition of the respective drug. […] After 72 hours WST-1 reagent was added and incubated with the cells for 4 hours before absorbance measurement at 450 nm in an EL800 Universal Microplate Reader (Bio-Tek Instruments Inc.). Media alone was used as a blank and proliferation in the absence of compounds served as positive control. Results are representative of three/four experiments.

[4] = test system: canine cancer cell lines other than C2; assay: cells; conditions: Canis lupus familiaris, read-out: IC50 masitinib single agent
[5] = test system: Capan-2 pancreatic cancer cells; assay: WST-1 proliferation assay, Capan-2; format: cell-based, human
Procedure: as §1, §2

[6] = test system: BxPC-3 pancreatic cancer cells; assay: WST-1 proliferation assay, BxPC-3; format: cell-based, human
Procedure: as §1, §2

[7] = test system: Ba/F3 cells expressing PDGFR-α; conditions: read-out: IC50, PDGF-BB-stimulated proliferation and PDGFR-α tyrosine phosphorylation; cited from earlier work
[8] = test system: CMT27 breast carcinoma cells; assay: Alamar Blue cell proliferation assay, CMT27; format: cell-based, canine
[9] = test system: Ba/F3 cells expressing human or mouse wild-type c-Kit; conditions: read-out: IC50, blocking stem cell factor-induced proliferation and c-Kit tyrosine phosphorylation; cited from earlier work
[10] = test system: Mia Paca-2 pancreatic cancer cells; assay: WST-1 proliferation assay, Mia Paca-2; format: cell-based, human; conditions: for response to gemcitabine after pre-incubation with TKI: Mia Paca-2, gemcitabine-resistant, 10 μM TKI
[11] = test system: CMT12 breast carcinoma cells; assay: Alamar Blue cell proliferation assay, CMT12; format: cell-based, canine
[12] = test system: Mia Paca-2 pancreatic tumors; assay: Nog-SCID mouse model of human pancreatic cancer; format: in vivo, Nog-SCID mice; conditions: day 56, 28 days of treatment; control 1023
[13] = Canis lupus familiaris, 72 h, read-out: IC50 masitinib monotherapy
[14] = Canis lupus familiaris, Breast carcinoma cell, 72 h, read-out: IC50 masitinib monotherapy

In the case of `CO[C@@H](C(=O)N1Cc2n[nH]c(NC(=O)c3ccc(N4CCN(C)CC4)cc3)c2C1)c1ccccc1` [danusertib], the “activation of dCK (substrate phosphorylation)” value (from here on “activation of dCK”) [1] is reported as “most active compounds; also recorded: activate dCK”.

For `Cc1ccc(NC(=O)c2ccc(CN3CCN(C)CC3)cc2)cc1Nc1nc(-c2cccnc2)cs1` [Masitinib, 4-(4-methylpiperazin-1-ylmethyl)-N-[4-methyl-3-(4-pyridin-3ylthiazol-2-ylamino)phenyl]benzamide], the IC50 (D17 osteosarcoma cells; [13]) was over 10 µM, the “Sensitization factor (maximum)” value (D17 osteosarcoma cells; D17, gemcitabine with masitinib 5 μM) was 70 and the “Sensitization factor (maximum)” value ([2]; Abrams, gemcitabine with masitinib 5 μM) was 18. For the same compound, the IC50 [2, 13] was over 10 µM, the “Sensitization factor (maximum)” value (C2 mastocytoma cells; C2, gemcitabine with masitinib 0.001 μM) was 1 and the IC50 (C2 mastocytoma cells; [13]) was 0.03 µM. The IC50 ([3]; Homo sapiens, 72 hours, 1% FCS, read-out: IC50, single agent) was 5 to 10 µM, the “reduction in gemcitabine IC50” value ([3]; masitinib pre-treatment (10 μM)) was 10 fold and the IC50 [4] was 5 to 20 µM. The “synergy of masitinib with gemcitabine” value ([5]; Capan-2, gemcitabine-sensitive) was “no synergy”, the IC50 ([5]; Homo sapiens, Capan-2, 72 hours, 1% FCS, read-out: IC50, single agent) was 5 to 10 µM and the “synergy of masitinib with gemcitabine” value ([6]; BxPC-3, gemcitabine-sensitive) was “no synergy”. The IC50 ([6]; Homo sapiens, BxPC-3, 72 hours, 1% FCS, read-out: IC50, single agent) was 5 to 10 µM, the IC50 [7] was 0.3 ± 0.005 µM and the “Sensitization factor (maximum)” value ([8]; CMT27, gemcitabine with masitinib 10 μM) was over 75. The IC50 [8, 14] was 8 µM, the IC50 [9] was 0.15 ± 0.08 µM and the IC50 ([10]; Homo sapiens, Mia Paca-2, 72 hours, 1% FCS, read-out: IC50, single agent) was 5 to 10 µM. For the same compound, the “response to gemcitabine after pre-incubation with TKI” value (“response to gemcitabine” below) [10] was “able to restore sensitivity to gemcitabine”, the “reduction in gemcitabine IC50” value ([10]; Mia Paca-2, pre-treated with 5 and 10 μM masitinib (10 μM)) was > 400 fold and 400 fold and the “Sensitization factor (maximum)” value ([11]; CMT12, gemcitabine with masitinib 10 μM) was over 10. For the same compound, the IC50 [11, 14] was 8 µM and the “Tumor Volume, Median” value [12] was 865 mm^3.

For `Cc1cn(-c2cc(NC(=O)c3ccc(C)c(Nc4nccc(-c5cccnc5)n4)c3)cc(C(F)(F)F)c2)cn1` [nilotinib, 4-methyl-N-[3-(4-methyl-1H-imidazol-1-yl)-5-(trifluoromethyl)phenyl]-3-[(4-pyridin-3-ylpyrimidin-2-yl)amino]benzamide], the “activation of dCK” value [1] was “relatively little or no activity; also recorded: did not activate dCK”.

For `Cc1nc(Nc2ncc(C(=O)Nc3c(C)cccc3Cl)s2)cc(N2CCN(CCO)CC2)n1.O` [dasatinib, N-(2-chloro-6-methylphenyl)-2-[[6-[4-(2-hydroxyethyl)-1-piperazinyl]-2-methyl-4-pyrimidinyl]amino]-5-thiazole carboxamide monohydrate], the “response to gemcitabine” value [10] was “did not result in an increased response” and the “cell proliferation with TKI alone” value ([10]; Mia Paca-2, imatinib 10 μM, dasatinib >0.1 μM) was “partially inhibited”.

In the case of `Cc1[nH]c(/C=C2\C(=O)Nc3ccc(F)cc32)c(C)c1C(=O)NCCN1CCCC1` [toceranib, (Z)-5-[(5-Fluoro-2-oxo-1,2-dihydro-3H-indol-3-ylidene)methyl]-2,4-dimethyl-N-(2-pyrrolidin-1-ylethyl)-1H-pyrrole-3-carboxamide], the “activation of dCK” value [1] is reported as “relatively little or no activity; also recorded: did not activate dCK”.

In the case of `CNC(=O)c1cc(Oc2ccc(NC(=O)Nc3ccc(Cl)c(C(F)(F)F)c3)cc2)ccn1` [sorafenib, 4-[4-[[4-chloro-3-(trifluoromethyl)phenyl]carbamoylamino]phenoxy]-N-methyl-pyridine-2-carboxamide], the “activation of dCK” value [1] is reported as “relatively little or no activity; also recorded: did not activate dCK”.

In the case of `COc1cc(Nc2ncc(F)c(Nc3ccc4c(n3)N(COP(=O)(O)O)C(=O)C(C)(C)O4)n2)cc(OC)c1OC` [fostamatinib, [6-({5-fluoro-2-[(3,4,5-trimethoxyphenyl)amino]pyrimidin-4-yl}amino)-2,2-dimethyl-3-oxo-2,3-dihydro-4H-pyrido[3,2-b][1,4]oxazin-4-yl]methyl dihydrogen phosphate], the “activation of dCK” value [1] is reported as “relatively little or no activity; also recorded: did not activate dCK”.

For `CCN(CC)CCNC(=O)c1c(C)[nH]c(/C=C2\C(=O)Nc3ccc(F)cc32)c1C` [sunitinib, N-(2-diethylaminoethyl)-5-[(Z)-(5-fluoro-2-oxo-1H-indol-3-ylidene)methyl]-2,4-dimethyl-1H-pyrrole-3-carboxamide], the “activation of dCK” value [1] was “relatively little or no activity; also recorded: did not activate dCK”.

In the case of `COc1cc(Nc2c(C#N)cnc3cc(OCCCN4CCN(C)CC4)c(OC)cc23)c(Cl)cc1Cl` [bosutinib, 4-[(2,4-dichloro-5-methoxyphenyl)amino]-6-methoxy-7-[3-(4-methylpiperazin-1-yl)propoxy]quinoline-3-carbonitrile], the “activation of dCK” value [1] is reported as “most active compounds; also recorded: activate dCK”.

With `C#Cc1cccc(Nc2ncnc3cc(OCCOC)c(OCCOC)cc23)c1` [erlotinib, N-(3-ethynylphenyl)-6,7-bis(2-methoxyethoxy) quinazolin-4-amine] the “activation of dCK” value [1] was “relatively little or no activity”.

With `Cc1cc(Nc2cc(N3CCN(C)CC3)nc(Sc3ccc(NC(=O)C4CC4)cc3)n2)[nH]n1` [tozacertib] the “activation of dCK” value [1] was “most active compounds; also recorded: activate dCK”.

In the case of `Cc1ccc(NC(=O)c2ccc(CN3CCN(C)CC3)cc2)cc1Nc1nccc(-c2cccnc2)n1` [imatinib, 4-[(4-methylpiperazin-1-yl)methyl]-N-[4-methyl-3-[(4-pyridin-3-ylpyrimidin-2-yl)amino]phenyl]benzamide], the “response to gemcitabine” value [10] is reported as “did not result in an increased response”.
